Test [1] relates to P388/ADR leukemia. Description: NCI tumour cell line growth inhibition, 48 h.
Test [2] concerns SN12K1 renal. Briefly: NCI tumour cell line growth inhibition, 48 h.

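Grown in 96-well plates, cells were treated for 48 hours with each compound at five concentrations. Insufficient inhibition: endpoint recorded as highest concentration tested. GI50 is the concentration that inhibits growth by half. TGI marks complete inhibition of growth.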

Regarding `O=C(O)C1(C(=O)O)CCC1.[NH2-].[NH2-].[Pt+2]`, in test [1], the GI50 is 33.3 µM and the TGI was determined as 218 µM. In test [2], the GI50 was 107 µM and the TGI was 185 µM.

Source of the values: PubChem BioAssay (NCI).
